From patent US7932262B2 (Novartis AG, priority 2006, dated 2011) come the findings set out here.

The structures appear in SMILES notation. pEC50, pIC50: −log10 of the molar value.

The target of experiment [1] is T1, PDK1 kinase (Homo sapiens, UniProt O15530).
T1 sequence (O15530 1-556): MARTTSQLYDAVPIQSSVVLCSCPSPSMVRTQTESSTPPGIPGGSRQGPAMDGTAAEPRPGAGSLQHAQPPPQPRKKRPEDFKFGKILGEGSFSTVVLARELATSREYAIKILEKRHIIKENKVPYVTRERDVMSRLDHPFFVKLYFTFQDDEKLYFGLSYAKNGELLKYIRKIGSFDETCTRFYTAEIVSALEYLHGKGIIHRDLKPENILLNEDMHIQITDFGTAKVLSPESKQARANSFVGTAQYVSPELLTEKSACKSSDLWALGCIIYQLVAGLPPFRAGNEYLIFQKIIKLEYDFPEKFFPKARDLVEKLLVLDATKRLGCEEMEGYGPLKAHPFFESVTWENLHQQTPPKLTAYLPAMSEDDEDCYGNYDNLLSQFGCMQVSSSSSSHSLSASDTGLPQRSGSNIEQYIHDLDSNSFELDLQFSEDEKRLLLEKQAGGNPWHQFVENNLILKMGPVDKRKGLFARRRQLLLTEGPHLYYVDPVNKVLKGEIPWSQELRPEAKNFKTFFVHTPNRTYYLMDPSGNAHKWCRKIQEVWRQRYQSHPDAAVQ
The experiment can be described thus: PDK1 Kinase Alpha Screen Assay. The format is biochemical. To be noted: PDK1 Kinase Alpha Screen Assay; read-out: PDK1 IC50. A digest of the protocol:
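AlphaScreen readout: phospho-peptide captured by phospho-(Ser/Thr) PKA substrate antibody (0.3 mg/ml) on protein A acceptor beads, biotin peptide on streptavidin donor beads (25 μg/ml each), overnight at room temperature. Kinase step used 50 nM PDK1-4 peptide, 10 uM ATP, 3-18 hours.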

The subject of experiment [2] is A2780 cells. The experiment can be described thus: Cell Proliferation Assay (Cell Titer Glo), A2780. To be noted: Homo sapiens; cell proliferation, A2780 cells; read-out: CPEC50 A2780. The format is cell-based. The procedure, abridged: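 Following a 3-day compound exposure (37° C., 5% CO2) of A2780 or PC3MM cells plated at 1000 per well, viability was measured by Cell Titer Glo luminescence in fresh medium, read 10 min after reagent addition.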

Regarding `NS(=O)(=O)c1ccc(Nc2ncc3ccc(-c4cn[nH]c4)c(OC4CCNCC4)c3n2)cc1` [Compound 859, 4-(8-(piperidin-4-yloxy)-7-(1H-pyrazol-4-yl)quinazolin-2-ylamino)benzenesulfonamide], the negative-log IC50 (pIC50) in experiment [1] is greater than 5.30. The pEC50 in experiment [2] is greater than 5.30.
As for `Cn1cc(-c2ccc3cnc(Nc4ccc(S(N)(=O)=O)cc4)nc3c2OC2CCNCC2)cn1` [Compound 860, 4-(7-(1-methyl-1H-pyrazol-4-yl)-8-(piperidin-4-yloxy)quinazolin-2-ylamino)benzenesulfonamide], the pIC50 in experiment [1] was greater than 5.30. In addition, in experiment [2], the pEC50 was greater than 5.30.
For `NS(=O)(=O)c1ccc(Nc2ncc3ccc(-c4ncco4)c(OC4CCNCC4)c3n2)cc1` [Compound 861, 4-(7-(oxazol-2-yl)-8-(piperidin-4-yloxy)quinazolin-2-ylamino)benzenesulfonamide], the negative logarithm of the IC50 (pIC50) in experiment [1] was greater than 5.30. The pEC50 in experiment [2] was greater than 5.30.
As for `NS(=O)(=O)c1ccc(Nc2ncc3ccc(-c4nccs4)c(OC4CCNCC4)c3n2)cc1` [Compound 862, 4-(8-(piperidin-4-yloxy)-7-(thiazol-2-yl)quinazolin-2-ylamino)benzenesulfonamide], the pIC50 in experiment [1] was greater than 5.30. The pEC50 in experiment [2] was greater than 5.30.
Turning to `NS(=O)(=O)c1ccc(Nc2ncc3ccc(-c4ccccn4)c(OC4CCNCC4)c3n2)cc1` [Compound 863, 4-(8-(piperidin-4-yloxy)-7-(pyridin-2-yl)quinazolin-2-ylamino)benzenesulfonamide], the pIC50 in experiment [1] is greater than 5.30. Further, the pEC50 in experiment [2] is greater than 5.30.
As for `N#Cc1ccc2cnc(Nc3ccc(S(N)(=O)=O)cc3)nc2c1OC1CCNCC1` [Compound 864, 4-(7-cyano-8-(piperidin-4-yloxy)quinazolin-2-ylamino)benzenesulfonamide], in experiment [1], the pIC50 was greater than 5.30. Further, the pEC50 in experiment [2] is greater than 5.30.
As for `Cc1n[nH]c(C)c1-c1ccc2cnc(Nc3ccc(S(N)(=O)=O)cc3)nc2c1` [Compound 865, 4-(7-(3,5-dimethyl-1H-pyrazol-4-yl)quinazolin-2-ylamino)benzenesulfonamide], in experiment [1], the pIC50 was greater than 5.30. In experiment [2], the pEC50 was greater than 5.30.
As to `NS(=O)(=O)c1ccc(Nc2ncc3ccc(-c4cnoc4)cc3n2)cc1` [Compound 866, 4-(7-(isoxazol-4-yl)quinazolin-2-ylamino)benzenesulfonamide], the pIC50 in experiment [1] is greater than 5.30. The pEC50 in experiment [2] was greater than 5.30.
With `Cc1noc(C)c1-c1ccc2cnc(Nc3ccc(S(N)(=O)=O)cc3)nc2c1` [Compound 867, 4-(7-(3,5-dimethylisoxazol-4-yl)quinazolin-2-ylamino)benzenesulfonamide], the pIC50 in experiment [1] was greater than 5.30. Also, the pEC50 in experiment [2] was greater than 5.30.
As for `O=S(=O)(c1ccc(Nc2ncc3ccc(-c4cn[nH]c4)cc3n2)cc1)N1CCOCC1` [Compound 868, N-(4-(morpholinosulfonyl)phenyl)-7-(1H-pyrazol-4-yl)quinazolin-2-amine], in experiment [1], the pIC50 was greater than 5.30. Also, the pEC50 in experiment [2] was greater than 5.30.
In the case of `CN1CCC(c2c(O)ccc3cnc(Nc4ccc(S(N)(=O)=O)cc4)nc23)CC1` [Compound 870, 4-(7-hydroxy-8-(1-methylpiperidin-4-yl)quinazolin-2-ylamino)benzenesulfonamide], the negative-log IC50 (pIC50) in experiment [1] was greater than 5.30. In experiment [2], the pEC50 was greater than 5.30.
Turning to `CN1CCN(Cc2cccc3cnc(Nc4ccc(S(N)(=O)=O)cc4)nc23)CC1` [Compound 871, 4-(8-((4-methylpiperazin-1-yl)methyl)quinazolin-2-ylamino)benzenesulfonamide], the negative-log IC50 (pIC50) in experiment [1] was greater than 5.30. Also, the pEC50 in experiment [2] is greater than 5.30.
With `NS(=O)(=O)c1ccc(Nc2ncc3cccc(CN4CCOCC4)c3n2)cc1` [Compound 872, 4-(8-(morpholinomethyl)quinazolin-2-ylamino)benzenesulfonamide], in experiment [1], the pIC50 is greater than 5.30. Further, the pEC50 in experiment [2] was greater than 5.30.
On to `NS(=O)(=O)c1ccc(Nc2ncc3cccc(Nc4ccc(F)cc4)c3n2)cc1` [Compound 873, 4-(8-(4-fluorophenylamino)quinazolin-2-ylamino)benzenesulfonamide], for which the pIC50 in experiment [1] was greater than 5.30. For the same compound, the pEC50 in experiment [2] was greater than 5.30.
For the compound `CC(C)N1CCC(Oc2ccc3cnc(Nc4ccc(S(=O)(=O)N5CCOCC5)cc4)nc3c2)CC1` [Compound 874, 7-(1-isopropylpiperidin-4-yloxy)-N-(4-(morpholinosulfonyl)phenyl)quinazolin-2-amine], the negative logarithm of the IC50 (pIC50) in experiment [1] is greater than 5.30. Besides, in experiment [2], the pEC50 is greater than 5.30.
Regarding `NS(=O)(=O)c1ccc(Nc2ncc3ccc(-c4ccc5c(c4)CCNC5=O)c(OC4CCNCC4)c3n2)cc1` [Compound 875, 4-(7-(1-oxo-1,2,3,4-tetrahydroisoquinolin-6-yl)-8-(piperidin-4-yloxy)quinazolin-2-ylamino)benzenesulfonamide], in experiment [1], the pIC50 is greater than 5.30. In experiment [2], the pEC50 is 5.00 to 5.30.
On to `CC(C)Cn1cc(-c2ccc3cnc(Nc4ccc(S(N)(=O)=O)cc4)nc3c2OC2CCNCC2)cn1` [Compound 876, 4-(7-(1-isobutyl-1H-pyrazol-4-yl)-8-(piperidin-4-yloxy)quinazolin-2-ylamino)benzenesulfonamide], for which, in experiment [1], the pIC50 is greater than 5.30. Moreover, the pEC50 in experiment [2] was greater than 5.30.
Turning to `NS(=O)(=O)c1ccc(Nc2ncc3ccc(-c4cnccn4)c(OC4CCNCC4)c3n2)cc1` [Compound 877, 4-(8-(piperidin-4-yloxy)-7-(pyrazin-2-yl)quinazolin-2-ylamino)benzenesulfonamide], the pIC50 in experiment [1] is greater than 5.30. The pEC50 in experiment [2] was greater than 5.30.
With `NS(=O)(=O)c1ccc(Nc2ncc3ccc(-c4ccc(NCCN5CCCC5)nc4)cc3n2)cc1` [Compound 878, 4-(7-(6-(2-(pyrrolidin-1-yl)ethylamino)pyridin-3-yl)quinazolin-2-ylamino)benzenesulfonamide], the pIC50 in experiment [1] was greater than 5.30. Also, the pEC50 in experiment [2] is greater than 5.30.
Take `CN1CCN(c2ccc(-c3ccc4cnc(Nc5ccc(S(N)(=O)=O)cc5)nc4c3)cn2)CC1` [Compound 879, 4-(7-(6-(4-methylpiperazin-1-yl)pyridin-3-yl)quinazolin-2-ylamino)benzenesulfonamide]: the negative-log IC50 (pIC50) in experiment [1] is greater than 5.30. Also, the pEC50 in experiment [2] is greater than 5.30.
With `NS(=O)(=O)c1ccc(Nc2ncc3ccc(-c4ccc(N5CCCC5)nc4)cc3n2)cc1` [Compound 880, 4-(7-(6-(pyrrolidin-1-yl)pyridin-3-yl)quinazolin-2-ylamino)benzenesulfonamide], the pIC50 in experiment [1] is greater than 5.30. Besides, the pEC50 in experiment [2] was 5.00 to 5.30.
On to `NS(=O)(=O)c1ccc(Nc2ncc3ccc(-c4ccc(N5CCOCC5)nc4)cc3n2)cc1` [Compound 881], for which the pIC50 in experiment [1] is greater than 5.30. In addition, the pEC50 in experiment [2] is greater than 5.30.
Consider `CN1CCN(c2cc(-c3ccc4cnc(Nc5ccc(S(N)(=O)=O)cc5)nc4c3)ccn2)CC1` [Compound 882, 4-(7-(2-(4-methylpiperazin-1-yl)pyridin-4-yl)quinazolin-2-ylamino)benzenesulfonamide], for which the negative-log IC50 (pIC50) in experiment [1] is greater than 5.30. The pEC50 in experiment [2] is greater than 5.30.
Turning to `CC(C)CCn1cc(-c2ccc3cnc(Nc4ccc(S(N)(=O)=O)cc4)nc3c2)cn1` [Compound 883, 4-(7-(1-isopentyl-1H-pyrazol-4-yl)quinazolin-2-ylamino)benzenesulfonamide], the pIC50 in experiment [1] is greater than 5.30. Further, the pEC50 in experiment [2] was greater than 5.30.
Turning to `NC(=O)c1ccc(-c2cc(F)cc3cnc(Nc4ccc(S(N)(=O)=O)cc4)nc23)cc1` [Compound 886, 4-(6-fluoro-2-(4-sulfamoylphenylamino)quinazolin-8-yl)benzamide], in experiment [1], the pIC50 was greater than 5.30. The pEC50 in experiment [2] was 5.00 to 5.30.
As for `NS(=O)(=O)c1ccc(Nc2ncc3cccc(-c4ccc5c(c4)CCNC5=O)c3n2)cc1` [Compound 887, 4-(8-(1-oxo-1,2,3,4-tetrahydroisoquinolin-6-yl)quinazolin-2-ylamino)benzenesulfonamide], in experiment [1], the pIC50 was greater than 5.30. Further, the pEC50 in experiment [2] is 5.00 to 5.30.
With `NS(=O)(=O)c1ccc(Nc2ncc3cc(F)cc(-c4ccc(N5CCNC(=O)C5)nc4)c3n2)cc1` [Compound 889, 4-(6-fluoro-8-(6-(3-oxopiperazin-1-yl)pyridin-3-yl)quinazolin-2-ylamino)benzenesulfonamide], the negative logarithm of the IC50 (pIC50) in experiment [1] was greater than 5.30. Moreover, the pEC50 in experiment [2] is greater than 5.30.
For `NS(=O)(=O)c1ccc(Nc2ncc3cc(F)cc(-c4ccc(N5CCCC5)nc4)c3n2)cc1` [Compound 890, 4-(6-fluoro-8-(6-(pyrrolidin-1-yl)pyridin-3-yl)quinazolin-2-ylamino)benzenesulfonamide], the pIC50 in experiment [1] was greater than 5.30. Further, the pEC50 in experiment [2] was 5.00 to 5.30.
`CC(=O)NCCNc1ccc(-c2cc(F)cc3cnc(Nc4ccc(S(N)(=O)=O)cc4)nc23)cn1` [Compound 891, N-(2-(5-(6-fluoro-2-(4-sulfamoylphenylamino)quinazolin-8-yl)pyridin-2-ylamino)ethyl)acetamide]: the negative-log IC50 (pIC50) in experiment [1] is greater than 5.30. In addition, in experiment [2], the pEC50 was greater than 5.30.

In general, pIC50 refers to the negative decadic logarithm of the IC50, by convention in mol/L.
